{"source": "patent US12516081B2", "about": "“Anti-viral compounds and methods of use” (Metro International Biotech, LLC, priority 2020, dated 2026)", "key": {"[1]": {"tested_on": "SARS-CoV-2, USA-WA1/2020", "test": "Antiviral assay: inhibition of SARS-CoV-2 cytopathic effect (neutral red) in Vero 76 cells", "format": "cell-based", "settings": "read-out: Anti-viral Assay (EC50)"}, "[2]": {"tested_on": "NAAD in murine skeletal muscle", "test": "In vivo NAAD assay, mouse skeletal muscle", "settings": "500 mg/kg oral, mice, 8 hour time point, FIG. 2", "procedure": "(§1) FIG. 2 provides the mean composite NAAD assayed concentration in mouse skeletal muscle cells. The Y-axis is concentration in mmol/kg. […] The left-most bar at each time point is vehicle, the central bar is reference compound nicotinamide mononucleotide (NMN), and the right-most bar at each time point is Compound 2. Each compound is administered orally to mice at 500 mg/kg.\n(§2) In vivo NAD and NAAD assay: Animals were dosed with 500 mg/kg of test compound or reference compound in vehicle."}, "[3]": {"tested_on": "NAD in murine liver", "test": "In vivo NAD assay, mouse liver", "settings": "500 mg/kg oral, mice", "procedure": "as §1, with “FIG. 1” for “FIG. 2”, “composite NAD” for “composite NAAD”, “mouse liver” for “mouse skeletal muscle”\nas §2"}, "[4]": {"settings": "concentration inhibiting CPE by 50%; i) and ii) are separate determinations"}}, "note": "Where two headings read alike, the source gives them in different places.", "data": [{"compound": "NAR-2′C-methyl-5′-cytidine ester [Compound 5]", "values": [{"measurement": "EC50", "setting": "[1]; [4]", "result": "> 100", "unit": "µM"}]}, {"compound": "NAR-2′C-Methyl-6-O-methyl-5′-guanosine ester [Compound 6]", "values": [{"measurement": "EC50", "setting": "[1]; [4]", "result": "> 100", "unit": "µM"}]}, {"compound": "CCC(CC)COC(=O)[C@H](C)N[P@](=O)(OC[C@H]1O[C@@](C#N)(c2ccc3c(N)ncnn23)[C@H](O)[C@@H]1O)Oc1ccccc1", "note": "[Remdesivir, reference compound]", "values": [{"measurement": "EC50", "setting": "[1]; Severe acute respiratory syndrome coronavirus 2, Vero 76, 120 h; concentration inhibiting CPE by 50%; i) and ii) are separate determinations", "result": "1.9 to 6", "unit": "µM"}]}, {"compound": "((2R,3S,4R,5R)-5-(3-((((2R,3S,4R,5R)-5-(4-aminopyrrolo[2,1-f][1,2,4]triazin-7-yl)-5-cyano-3,4-dihydroxytetrahydrofuran-2-yl)methoxy)carbonyl)-1λ^4-pyridin-1-yl)-3,4-dihydroxytetrahydrofuran-2-yl)methyl hydrogen phosphate [Compound 2]", "values": [{"measurement": "NAAD level in murine skeletal muscle", "setting": "[2]", "result": "boosted"}, {"measurement": "Oral availability", "setting": "[3]", "result": "orally available"}, {"measurement": "NAD level in murine liver", "setting": "[3]; 8 hour time point, FIG. 1", "result": "boosted"}]}, {"compound": "NC(=O)c1ccc[n+]([C@@H]2O[C@H](COP(=O)([O-])O)[C@@H](O)[C@H]2O)c1", "note": "[Nicotinamide mononucleotide (NMN), Nicotinamide mononucleotide, reference compound]", "values": [{"measurement": "EC50", "setting": "[1]; [4]", "result": "> 2000", "unit": "µM"}]}, {"compound": "NAR-2′C-methyl-5′-guanosine ester [Compound 3]", "values": [{"measurement": "EC50", "setting": "[1]; [4]", "result": "> 100", "unit": "µM"}]}, {"compound": "N#C[C@@]1(c2ccc3c(N)ncnn23)O[C@H](COP(=O)([O-])OC[C@H]2O[C@@H]([n+]3cccc(C(=O)O)c3)[C@H](O)[C@@H]2O)[C@@H](O)[C@H]1O", "note": "[Compound 1, ((2R,3S,4R,5R)-5-(4-aminopyrrolo[2,1-f][1,2,4]triazin-7-yl)-5-cyano-3,4-dihydroxytetrahydrofuran-2-yl)methyl (((2R,3S,4R,5R)-5-(3-carboxy-1λ^4-pyridin-1-yl)-3,4-dihydroxytetrahydrofuran-2-yl)methyl)_phosphate]", "values": [{"measurement": "EC50", "setting": "[1]; Severe acute respiratory syndrome coronavirus 2, Vero 76, 120 h, concentration inhibiting CPE by 50%; Vero 76 cells, neutral red, day 5 post-infection; i) and ii) are separate determinations", "result": 17, "unit": "µM"}, {"measurement": "EC50", "setting": "[1]; concentration inhibiting CPE by 50%; Vero 76 cells, neutral red, day 5 post-infection; i) and ii) are separate determinations", "result": 31, "unit": "µM"}]}, {"compound": "NAR-2′C-methyl 5′-uridine ester [Compound 4]", "values": [{"measurement": "EC50", "setting": "[1]; [4]", "result": "> 100", "unit": "µM"}]}]}
